{"source": "patent US10092574B2", "about": "“Inhibitors of polynucleotide repeat-associated RNA foci and uses thereof” (VALORISATION-RECHERCHE, LIMITED PARTNERSHIP, priority 2013, dated 2018)", "key": {"TNNT2 exon 5": {"tested_on": "TNNT2 exon 5", "assay": "RT-PCR alternative splicing assay, TNNT2 exon 5", "assay_type": "cell-based, human", "conditions": "DM1 myoblasts, 20 μM, 7 days; from 90% (FIG. 8C)", "description": "(§1) Human myoblasts were obtained from the Myosix institute associated with the Association Frangaise contre les Myopathies (AFM). Five primary myoblast lines were obtained as controls, and one line from a DM1 patient with a 3.8 Kb CTG triplet amplification corresponding to approximately 1250 CTG repeats. The human myoblasts are cultivated in HAM-F10 media (SIGMA N6635) with 15% FBS, 1% chick embryo extract, and 390 ng/ml of dexamethasone. One day before adding compounds, 2×10^5 cells were plated in 100 mm plates (for CUGBP1 western blot or RT-PCR alternative splicing assay) or 2×10^4 cells/well are seeded in 12-well plates containing 12 mm round glass coverslips (for FISH to detect RNA foci). […]\nFor Western blots, CUGBP1 was detected with the 3B1-3D11 monoclonal antibody (mAb) (SIGMA C5112) and GAPDH was detected with the 6C5 mAb (Millipore MAB374). The enhanced chemiluminescence signal (ECL) was acquired and quantified with the ChemiDoc™ MP imaging system (Bio-Rad). […] The alternative splicing of the hnRNPA2/B1 transcript was detected with the primers 5′-[…]-3′ (SEQ ID NO:7) and 5′-[…]-3′ (SEQ ID NO:8). PCR was performed with Taq using standard conditions but the number of amplification cycles was optimized to be in the quantitative range for each gene. […]"}, "[1]": {"tested_on": "CUG-repeat RNA foci (mutant DMPK mRNA)", "assay": "FISH detection and quantification of CUG-repeat RNA foci in DM1 patient myoblasts", "assay_type": "cell-based, human", "conditions": "DM1 myoblasts ~1250 CTG, 7 days, 15 μM compound 15 or 5 μM compound 32, vs DMSO (FIG. 4)", "description": "as §1\nFor fluorescent in situ hybridization (FISH), cells grown on glass coverslips were fixed in PBS containing 4% paraformaldehyde, dehydrated for 2 hours in 70% ethanol, and incubated overnight with 10 ng of probe in 2×SSC 40% formamide at 37° C. […] To quantify the CUG repeat RNA aggregates, the 3D images of the foci were first processed by maximum intensity projection with the MetaMorph™ software (Molecular Devices Inc.), resulting in a 2D image containing all the foci in each cell. […] For each treatment condition, 60 to 80 cells were analyzed and all the data points were presented, with the median value indicated. […]"}}}
{"smiles": "CCCN(CCC)S(=O)(=O)c1ccc(NS(=O)(=O)Cc2ccccc2)cc1", "note": "[Compound 15]", "values": [{"measurement": "inclusion of foetal TNNT2 exon 5, of total transcripts", "setting": "TNNT2 exon 5", "result": 76, "unit": "%"}, {"measurement": "decrease in RNA foci formation (surface occupied by RNA foci in the nucleus)", "setting": "[1]", "result": "more than two-fold decrease"}]}
{"smiles": "CCCc1c(C(=O)N(Cc2ccccc2)Cc2cccs2)cnn1-c1ccccc1", "note": "[Compound 32]", "values": [{"measurement": "decrease in RNA foci formation (surface occupied by RNA foci in the nucleus)", "setting": "[1]", "result": "more than two-fold decrease"}]}
